Data from PubChem BioAssay (NCI).
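Growth conditions: 96-well plates. Treatment: test compound, 48 hours, 5 concentrations. Analysis: linear interpolation between bracketing concentrations; unreached endpoints set to highest concentration. The concentration for 50% growth inhibition is given as GI50. Definition used: TGI = concentration required for complete inhibition of growth.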

Experiments:
Test in all cases: NCI-60 cell line screen, 48 h
786-0 renal = test system: 786-0 renal
DU-145 prostate = test system: DU-145 prostate
HCC-2998 colon = test system: HCC-2998 colon
NCI-H226 lung = test system: NCI-H226 lung
NCI-H23 lung = test system: NCI-H23 lung
OVCAR-4 ovarian = test system: OVCAR-4 ovarian
OVCAR-8 ovarian = test system: OVCAR-8 ovarian
RPMI-8226 leukemia = test system: RPMI-8226 leukemia
SW-620 colon = test system: SW-620 colon
EKVX NSCLC = test system: EKVX NSCLC

SMILES	GI50 (786-0 renal) [µM]	TGI (786-0 renal) [µM]	GI50 (DU-145 prostate) [µM]	TGI (DU-145 prostate) [µM]	GI50 (HCC-2998 colon) [µM]	TGI (HCC-2998 colon) [µM]	GI50 (NCI-H226 lung) [µM]	TGI (NCI-H226 lung) [µM]	GI50 (NCI-H23 lung) [µM]	TGI (NCI-H23 lung) [µM]	GI50 (OVCAR-4 ovarian) [µM]	TGI (OVCAR-4 ovarian) [µM]	GI50 (OVCAR-8 ovarian) [µM]	TGI (OVCAR-8 ovarian) [µM]	GI50 (RPMI-8226 leukemia) [µM]	TGI (RPMI-8226 leukemia) [µM]	GI50 (SW-620 colon) [µM]	TGI (SW-620 colon) [µM]	TGI (EKVX NSCLC) [µM]
O=S(=O)(NCCNc1nccc(-c2c(-c3ccc(F)cc3)nc3sccn23)n1)c1ccccc1	4.77	> 100	5.14	> 100	22.4	> 100	7.73	> 100	16.2	> 100	5.6	> 100	4.17	> 100	3.79	33	6.55	> 100	
COc1ccc(Nc2cc(C)nc(N3CCN(c4ccnc5cc(Cl)ccc45)CC3)n2)cc1	2.61	> 100	6.57	> 100	3.24	11.6	4.7	> 100	3.82	> 100	1.76	> 100	3.25	> 100	2.18	8.91	2.73	13.2	
CCCCCCC(/C=N/O)C(C)(O)CCC (stereo not given)		> 100				> 100		> 100		> 100		> 100		> 100		> 100		> 100	> 100
O=C(O)C1=C(C(=O)Nc2ccc(NC(=O)C3=C(C(=O)O)C4C=CC3C4)cc2)C2C=CC1C2		> 100				> 100				> 100		> 100		> 100		> 100		> 100	> 100
Nn1c(N=Nc2c(O)[nH]c3c(Cl)cc(Cl)cc23)n[nH]c1=S		> 100				> 100		> 100		> 100		> 100		> 100		> 100		> 100	> 100
O=C1c2nc3n(c2C(=O)c2c1nc1n2CCC1)CCC3	9.25	> 47.8				21	7.84	19.1	3.08	7.09	5.45	14.9	7.87	22.5	9.83	> 100		17.2	31.2
COC(=O)C1=C(c2ccc3c(c2)OCO3)OC(c2cc(OC)c(OC)c(OC)c2)C1 (stereo not given)		> 100				> 100		> 100		> 100		> 100		92.4		> 100		> 100	> 100
O=C(O)c1ccccc1NC(=O)C1CCCCC1		> 100				> 100		> 100				> 100		> 100		> 100		> 100	> 100
Cn1c(=O)c(Oc2ccc(F)cc2F)cc2cnc(NCCS(C)(=O)=O)nc21	> 25	> 25	> 25	> 25	> 25	> 25	> 25	> 25	> 25	> 25	> 25	> 25	> 25	> 25	> 25	> 25	> 25	> 25	
COC(=O)C1=CC2OC1(C)CCC2=O (stereo not given)		> 100				> 100		> 100		> 100		> 100		> 100		> 100		> 100	> 100
COc1ccc2nc(NC(=O)C(=O)C(C#N)c3ccc(Cl)c(Cl)c3)sc2c1 (stereo not given)		> 100						> 100		> 100		> 100		> 100		> 100		> 100	> 100
O=C1NC(=O)C2C1N(Cc1ccccc1)C(=O)N2Cc1ccccc1 (stereo not given)		> 100				> 100		> 100		> 100		> 100				> 100		> 100	> 100
CC1=CC(=O)N(c2c(C)cccc2Cl)C(C)N1 (stereo not given)		> 100				> 100		> 100		> 100		> 100		> 100				> 100	> 100
O=[N+]([O-])c1ccc(Cl)cc1C1SCc2nc3ccccc3n21 (stereo not given)		> 100				> 100				> 100		> 100		> 100		> 100		> 100	> 100
COc1ccc2c(c1OC)C(=O)c1cnccc1C2=O		> 100				> 100		> 100		> 100		> 100		> 100		> 100		> 100	> 100
COc1cc(Cl)cc(-c2nn(-c3cccc(NC(=O)Nc4ccc(Cl)c(C(F)(F)F)c4)c3)cc2-c2ccncc2)c1	1.59	4.27	1.86	14	2.91	9.02	2.5	14.7	1.36	6.23	1.8	28.8	0.739	5.93	0.402	2.07	1.61	10.5	
O=C(CC1C(=O)Nc2ccccc2S1=O)Nc1ccc(Cl)cc1 (stereo not given)		> 100				> 100		> 100		> 100		> 100		> 100		> 100		> 100	
COc1ccc(OC)c(Nc2nc(-c3c(C)nc4sccn34)cs2)c1	32.3	> 100	> 100	> 100	> 100	> 100	19.2	> 100	51.1	> 100	14.2	> 100	7.22	> 100	8.91	> 100	> 100	> 100	
O=C1C2Nc3ccccc3SC2C(=O)N1c1ccccc1C(F)(F)F (stereo not given)		68.5				35.7		> 100		60.3		> 100		> 100		> 100		> 100	> 100
